From patent US20120122727A1, “IN VITRO METHOD FOR PREDICTING WHETHER A COMPOUND IS GENOTOXIC IN VIVO” (priority 2009, published 2012)

How the values were obtained:
[1] = tested on: primary mouse hepatocytes; test: Class prediction true GTX vs false GTX by PAM from hepatocyte gene expression
Protocol: PAM uses gene expression data to calculate the shrunken centroid for each class and identifies the specific genes that determine the centroid most. Based on the nearest shrunken centroid, PAM is also capable of predicting to which class an unknown sample belongs (27). Class prediction was performed after 24 h and 48 h of exposure.
For this analysis, the gene list with differentially expressed probe sets was used. For each exposure period, 3 sets of genes (classifiers) were generated by PAM, using all ten treatments, based on the smallest estimated misclassification error rate (generated by 10-fold cross-validation) and a >80% predicted test probability. This was done by using 2 experiments as training set and the third experiment for validation. This was done for all 3 possible combinations, each time leaving out another experiment. For each time point, the classifiers that were in common between the three training sets, were set as the final classifier set for that time point
For the purpose of validating the class discrimination models with the final classifier sets, gene expression data were generated for two additional true GTX compounds, phenacetin and DMBA, and for three False GTX compounds, cur, ethylacrylate and resorcinol and the vehicle control for exposure periods of 24 and 48 h.

[2] = known class of the validation compound (GTX = true GTX, FP-GTX = false GTX); cited from earlier work

Oc1cccc(O)c1 [resorcinol]
100%: predicted test probability ([1]; mouse)
classified correctly: class prediction (true GTX / false GTX) [1]
FP-GTX: Prediction 24 h Exp 1 [1] | Prediction 24 h Exp 2 [1] | Prediction 24 h Exp 3 [1] | Prediction 48 h Exp 1 [1] | Prediction 48 h Exp 2 [1] | Prediction 48 h Exp 3 [1] | Genotoxic class [2]
